Target: T1, PI3K alpha (Homo sapiens, UniProt P42336)
T1 construct: purchased Millipore Upstate
Experiment: P110 Alpha TR-FRET Assay (PI3K alpha kinase assay, HTRF Transcreener ADP Assay)
Assay type: biochemical
Conditions: PI3K (WT)
Method in brief: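 Enzyme (50 ng) and compound were preincubated 20 min in HEPES pH 7.5 buffer containing MgCl2, DTT and vanadate before 10 μM ATP plus 5 μM PIP2 substrate was added for 20 min. ADP produced was quantified by TR-FRET (ADP-d2, anti-ADP cryptate, 1 h).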

T1 sequence (P42336 whole entry): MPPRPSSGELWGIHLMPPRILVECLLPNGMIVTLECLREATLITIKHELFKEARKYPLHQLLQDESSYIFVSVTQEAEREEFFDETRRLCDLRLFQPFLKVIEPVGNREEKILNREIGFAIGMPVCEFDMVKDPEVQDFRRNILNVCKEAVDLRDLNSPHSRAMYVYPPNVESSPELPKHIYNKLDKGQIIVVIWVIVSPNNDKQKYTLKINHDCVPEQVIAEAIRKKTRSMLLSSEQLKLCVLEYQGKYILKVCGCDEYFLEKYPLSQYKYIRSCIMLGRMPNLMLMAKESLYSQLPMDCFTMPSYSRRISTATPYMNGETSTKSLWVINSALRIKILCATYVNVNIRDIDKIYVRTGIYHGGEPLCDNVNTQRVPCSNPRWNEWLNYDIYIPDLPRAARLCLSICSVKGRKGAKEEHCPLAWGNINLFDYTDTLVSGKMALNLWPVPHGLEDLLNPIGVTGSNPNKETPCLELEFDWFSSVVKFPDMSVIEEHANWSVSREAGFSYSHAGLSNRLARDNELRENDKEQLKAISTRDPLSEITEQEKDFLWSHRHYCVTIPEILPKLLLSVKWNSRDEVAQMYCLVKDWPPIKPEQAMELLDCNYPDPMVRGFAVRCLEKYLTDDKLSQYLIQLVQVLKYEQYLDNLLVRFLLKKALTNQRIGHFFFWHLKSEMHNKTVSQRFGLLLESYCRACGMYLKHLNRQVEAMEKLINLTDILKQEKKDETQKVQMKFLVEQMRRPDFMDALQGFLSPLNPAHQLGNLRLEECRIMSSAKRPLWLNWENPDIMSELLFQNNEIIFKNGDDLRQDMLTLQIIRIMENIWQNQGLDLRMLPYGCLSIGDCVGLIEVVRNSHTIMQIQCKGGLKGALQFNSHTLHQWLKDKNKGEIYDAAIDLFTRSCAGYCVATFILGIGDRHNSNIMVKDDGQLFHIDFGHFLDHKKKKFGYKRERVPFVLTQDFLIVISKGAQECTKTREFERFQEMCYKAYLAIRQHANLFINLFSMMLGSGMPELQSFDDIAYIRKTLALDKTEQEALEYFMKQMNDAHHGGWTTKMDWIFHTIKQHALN
T1 sequence (P27986 whole entry partner): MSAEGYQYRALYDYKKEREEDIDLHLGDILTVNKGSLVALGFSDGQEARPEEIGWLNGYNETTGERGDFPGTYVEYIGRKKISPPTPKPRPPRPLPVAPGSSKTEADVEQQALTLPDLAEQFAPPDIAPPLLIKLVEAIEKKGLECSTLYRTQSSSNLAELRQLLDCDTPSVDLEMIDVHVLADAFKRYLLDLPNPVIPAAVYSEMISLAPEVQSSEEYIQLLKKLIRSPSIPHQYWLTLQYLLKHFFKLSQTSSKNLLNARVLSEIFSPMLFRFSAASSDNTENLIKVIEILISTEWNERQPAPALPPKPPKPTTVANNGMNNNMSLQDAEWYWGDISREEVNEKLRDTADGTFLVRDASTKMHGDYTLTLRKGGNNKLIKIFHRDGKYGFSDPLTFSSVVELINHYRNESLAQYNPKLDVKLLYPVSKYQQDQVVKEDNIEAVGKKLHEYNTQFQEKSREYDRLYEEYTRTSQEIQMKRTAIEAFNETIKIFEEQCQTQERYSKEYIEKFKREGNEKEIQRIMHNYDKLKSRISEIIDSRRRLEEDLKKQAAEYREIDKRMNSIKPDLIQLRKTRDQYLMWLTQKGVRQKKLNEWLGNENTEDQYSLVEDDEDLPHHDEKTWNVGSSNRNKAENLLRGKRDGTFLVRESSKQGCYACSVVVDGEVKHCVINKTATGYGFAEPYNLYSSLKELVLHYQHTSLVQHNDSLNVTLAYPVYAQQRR

SMILES	IC50 [µM]
CN(C)C(=O)C(CCS(C)(=O)=O)Nc1nc(-c2cccc3[nH]ncc23)nc(N2CCOCC2)n1 (stereo not drawn) [Compound 1210, 2-((4-(1H-indazol-4-yl)-6-morpholino-1,3,5-triazin-2-yl)amino)-N,N-dimethyl-4-(methylsulfonyl)butanamide]	< 5
CS(=O)(=O)N1CCN(c2nc(-c3cccc4[nH]ncc34)nc(N3CCOCC3)n2)CC1 [Compound 1211, 4-7-[4-3-(4-16-methanesulfonylpiperazin-1-yl)-6-5-(morpholin-4-yl)-1,3,5-triazin-2-yl]-1H-indazole]	< 5
Oc1nc(-c2cccc3[nH]ncc23)nc(N2CCOCC2)n1 [Compound 1212, 4-1-(1H-indazol-4-yl)-6-5-(morpholin-4-yl)-1,3,5-triazin-2-ol]	< 5
c1cc(-c2nc(N3CCCNCC3)nc(N3CCOCC3)n2)c2cn[nH]c2c1 [Compound 1213, 4-12-[4-3-(1,4-diazepan-1-yl)-6-5-(morpholin-4-yl)-1,3,5-triazin-2-yl]-1H-indazole]	< 5
CN(C)C(=O)[C@H]1CC[C@H](Nc2nc(-c3cccc4[nH]ncc34)nc(N3CCOCC3)n2)CC1 [Compound 1214, (1r,4r)-4-((4-(1H-indazol-4-yl)-6-morpholino-1,3,5-triazin-2-yl)amino)-N,N-dimethylcyclohexanecarboxamide]	< 5
CNC(=O)[C@H]1CC[C@@H](Nc2nc(-c3cccc4[nH]ncc34)nc(N3CCOCC3)n2)CC1 [Compound 1215, 4-((4-(1H-indazol-4-yl)-6-morpholino-1,3,5-triazin-2-yl)amino)-N-methylcyclohexanecarboxamide]	< 5
CN(C)C(=O)[C@H]1CC[C@@H](Nc2nc(-c3cccc4[nH]ncc34)nc(N3CCOCC3)n2)CC1 [Compound 1216, 4-((4-(1H-indazol-4-yl)-6-morpholino-1,3,5-triazin-2-yl)amino)-N,N-dimethylcyclohexanecarboxamide]	< 5
CN(C)C(=O)[C@H]1CCCN1c1nc(-c2cccc3[nH]ncc23)nc(N2CCOCC2)n1 [Compound 1217, (2R)-1-7-[4-1-(1H-indazol-4-yl)-6-5-(morpholin-4-yl)-1,3,5-triazin-2-yl]-N,N-dimethylpyrrolidine-2-carboxamide]	< 5
CNC(=O)N1CCN(c2nc(-c3cccc4[nH]ncc34)nc(N3CCOCC3)n2)CC1 [Compound 1218, 4-7-[4-1-(1H-indazol-4-yl)-6-5-(morpholin-4-yl)-1,3,5-triazin-2-yl]-N-methylpiperazine-1-carboxamide]	< 5
c1ccc(Nc2nc(-c3cccc4[nH]ncc34)nc(N3CCOCC3)n2)cc1 [Compound 1219, 4-(1H-indazol-4-yl)-6-morpholino-N-phenyl-1,3,5-triazin-2-amine]	< 5
OC1CCN(c2nc(-c3cccc4[nH]ncc34)nc(N3CCOCC3)n2)CC1 [Compound 1220, 1-8-[4-1-(1H-indazol-4-yl)-6-5-(morpholin-4-yl)-1,3,5-triazin-2-yl]piperidin-4-ol]	< 5
O=C1CCN(c2nc(-c3cccc4[nH]ncc34)nc(N3CCOCC3)n2)CC1 [Compound 1221, 1-8-[4-1-(1H-indazol-4-yl)-6-5-(morpholin-4-yl)-1,3,5-triazin-2-yl]piperidin-4-one]	< 5
NC1CCN(c2nc(-c3cccc4[nH]ncc34)nc(N3CCOCC3)n2)CC1 [Compound 1222, 1-8-[4-1-(1H-indazol-4-yl)-6-5-(morpholin-4-yl)-1,3,5-triazin-2-yl]piperidin-4-amine]	< 5
CN(C)C(=O)CCNc1nc(-c2cccc3[nH]ncc23)nc(N2CCOCC2)n1 [Compound 1223, 3-((4-(1H-indazol-4-yl)-6-morpholino-1,3,5-triazin-2-yl)amino)-N,N-dimethylpropanamide]	< 5
c1cc(-c2nc(-c3cccc4[nH]ncc34)nc(N3CCOCC3)n2)c2cn[nH]c2c1 [Compound 1224, 4-12-[4-3-(1H-indazol-4-yl)-6-5-(morpholin-4-yl)-1,3,5-triazin-2-yl]-1H-indazole]	< 5

Reference: patent US9481670B2, “Triazine compounds” (Sphaera Pharma PTE. Ltd., priority 2011, dated 2016)
